Laboratory results: US10202361B2, “Pyridazinones as herbicides” (E I DU PONT DE NEMOURS AND COMPANY, priority 2014, dated 2019)

Legend:
Format in all cases: in vivo
[1] = tested on: barnyardgrass (Echinochloa crus-galli); assay: Test A pre-/postemergence greenhouse herbicide test; conditions: 0 to 100 scale (0 no effect, 100 complete control), approx. 10 d
Text: (§1) Seeds of plant species selected from barnyardgrass (Echinochloa crus-galli), crabgrass, Large (large crabgrass, Digitaria sanguinalis), foxtail, giant (giant foxtail, Setaria faberii), morningglory (Ipomoea spp.), pigweed (Amaranthus retroflexus), velvetleaf (Abutilon theophrasti), wheat (Triticum aestivum), and corn (Zea mays) were planted into a blend of loam soil and sand and treated preemergence with a directed soil spray using test chemicals formulated in a non-phytotoxic solvent mixture which included a surfactant. At the same time these species were also treated with postemergence applications of test chemicals formulated in the same manner.
(§2) Plants ranged in height from 2 to 10 cm and were in the one- to two-leaf stage for the postemergence treatment. Treated plants and untreated controls were maintained in a greenhouse for approximately 10 d, after which time all treated plants were compared to untreated controls and visually evaluated for injury. Plant response ratings, summarized in Table A, are based on a 0 to 100 scale where 0 is no effect and 100 is complete control. A dash (-) response means no test result.

corn (Zea mays) = assay: as above; conditions: 0 to 100 scale (0 no effect, 100 complete control), approx. 10 d
Text: as §1, §2

[2] = tested on: crabgrass, Large (large crabgrass, Digitaria sanguinalis); assay: as above; conditions: 0 to 100 scale (0 no effect, 100 complete control), approx. 10 d
Text: as §1, §2

[3] = tested on: foxtail, giant (giant foxtail, Setaria faberii); assay: as above; conditions: 0 to 100 scale (0 no effect, 100 complete control), approx. 10 d
Text: as §1, §2

[4] = tested on: morningglory (Ipomoea spp.); assay: as above; conditions: 0 to 100 scale (0 no effect, 100 complete control), approx. 10 d
Text: as §1, §2

[5] = tested on: pigweed (Amaranthus retroflexus); assay: as above; conditions: 0 to 100 scale (0 no effect, 100 complete control), approx. 10 d
Text: as §1, §2

[6] = tested on: velvetleaf (Abutilon theophrasti); assay: as above; conditions: 0 to 100 scale (0 no effect, 100 complete control), approx. 10 d
Text: as §1, §2

[7] = tested on: wheat (Triticum aestivum); assay: as above; conditions: 0 to 100 scale (0 no effect, 100 complete control), approx. 10 d
Text: as §1, §2

[8] = tested on: barnyardgrass (Echinochloa crus-galli); assay: Test B flooded paddy test; conditions: Flood, scale of 0 to 100, 0 is no effect, 100 is complete control, 13 to 15 d
Experimental: (§3) Plant species in the flooded paddy test selected from rice (Oryza sativa), small-flower sedge, umbrella (small-flower umbrella sedge, Cyperus difformis), ducksalad (Heteranthera limosa), and barnyardgrass (Echinochloa crus-galli) were grown to the 2-leaf stage for testing. At time of treatment, test pots were flooded to 3 cm above the soil surface, treated by application of test compounds directly to the paddy water, and then maintained at that water depth for the duration of the test. Treated plants and controls were maintained in a greenhouse for 13 to 15 d, after which time all species were compared to controls and visually evaluated. Plant response ratings, summarized in Table B, are based on a scale of 0 to 100 where 0 is no effect and 100 is complete control. A dash (-) response means no test result.

[9] = tested on: ducksalad (Heteranthera limosa); assay: Test B flooded paddy test; conditions: Flood, scale of 0 to 100, 0 is no effect, 100 is complete control, 13 to 15 d
Experimental: as §3

rice (Oryza sativa) = assay: Test B flooded paddy test; conditions: Flood, scale of 0 to 100, 0 is no effect, 100 is complete control, 13 to 15 d
Experimental: as §3

[10] = tested on: sedge, umbrella (small-flower umbrella sedge, Cyperus difformis); assay: Test B flooded paddy test; conditions: Flood, scale of 0 to 100, 0 is no effect, 100 is complete control, 13 to 15 d
Experimental: as §3

Structure (SMILES) | Plant response rating, Barnyardgrass ([1]; Postemergence, 125 g ai/ha) | Plant response rating, Barnyardgrass ([1]; Postemergence, 500 g ai/ha) | Plant response rating, Corn (corn (Zea mays); Postemergence, 125 g ai/ha) | Plant response rating, Corn (corn (Zea mays); Postemergence, 500 g ai/ha) | Plant response rating, Corn (corn (Zea mays); Preemergence, 125 g ai/ha) | Plant response rating, Corn (corn (Zea mays); Preemergence, 500 g ai/ha) | Plant response rating, Crabgrass, Large ([2]; Postemergence, 125 g ai/ha) | Plant response rating, Crabgrass, Large ([2]; Postemergence, 500 g ai/ha) | Plant response rating, Crabgrass, Large ([2]; Preemergence, 125 g ai/ha) | Plant response rating, Crabgrass, Large ([2]; Preemergence, 500 g ai/ha) | Plant response rating, Foxtail, Giant ([3]; Postemergence, 125 g ai/ha) | Plant response rating, Foxtail, Giant ([3]; Postemergence, 500 g ai/ha) | Plant response rating, Foxtail, Giant ([3]; Preemergence, 125 g ai/ha) | Plant response rating, Foxtail, Giant ([3]; Preemergence, 500 g ai/ha) | Plant response rating, Morningglory ([4]; Postemergence, 125 g ai/ha) | Plant response rating, Morningglory ([4]; Postemergence, 500 g ai/ha) | Plant response rating, Morningglory ([4]; Preemergence, 125 g ai/ha) | Plant response rating, Morningglory ([4]; Preemergence, 500 g ai/ha) | Plant response rating, Pigweed ([5]; Postemergence, 125 g ai/ha) | Plant response rating, Pigweed ([5]; Postemergence, 500 g ai/ha) | other results
Cc1cc(=O)n(-c2cccc(C(F)(F)F)c2)nc1Oc1ccnc(C(F)(F)F)c1 [Compound 4] | 10 | 20 | 10 | 30 | 0 | 10 | 30 | 60 | 90 | 100 | 30 | 70 | 70 | 100 | 40 | 70 | 20 | 40 | 100 | 100 | Plant response rating, Barnyardgrass ([1]; Preemergence, 125 g ai/ha): 10; Plant response rating, Barnyardgrass ([1]; Preemergence, 500 g ai/ha): 40; Plant response rating, Pigweed ([5]; Preemergence, 125 g ai/ha): 100; Plant response rating, Pigweed ([5]; Preemergence, 500 g ai/ha): 100; Plant response rating, Velvetleaf ([6]; Postemergence, 125 g ai/ha): 90; Plant response rating, Velvetleaf ([6]; Postemergence, 500 g ai/ha): 100; Plant response rating, Velvetleaf ([6]; Preemergence, 125 g ai/ha): 10; Plant response rating, Velvetleaf ([6]; Preemergence, 500 g ai/ha): 20; Plant response rating, Wheat ([7]; Postemergence, 125 g ai/ha): 10; Plant response rating, Wheat ([7]; Postemergence, 500 g ai/ha): 20; Plant response rating, Wheat ([7]; Preemergence, 125 g ai/ha): 0; Plant response rating, Wheat ([7]; Preemergence, 500 g ai/ha): 10; Plant response rating, Barnyardgrass ([8]; 125 g ai/ha): 20; Plant response rating, Ducksalad ([9]; 125 g ai/ha): 65; Plant response rating, Rice (rice (Oryza sativa); 125 g ai/ha): 40; Plant response rating, Sedge, Umbrella ([10]; 125 g ai/ha): 70
O=c1c2c(c(Oc3ccnc(C(F)(F)F)c3)nn1-c1ccc(Cl)cc1)CCCC2 [Compound 7] | 0 | 10 | 10 | 10 | 0 | 0 | 10 | 10 | 0 | 40 | 10 | 10 | 0 | 30 | 10 | 20 | 0 | 0 | 90 | 100 | Plant response rating, Barnyardgrass ([1]; Preemergence, 125 g ai/ha): 0; Plant response rating, Barnyardgrass ([1]; Preemergence, 500 g ai/ha): 40; Plant response rating, Pigweed ([5]; Preemergence, 125 g ai/ha): 20; Plant response rating, Pigweed ([5]; Preemergence, 500 g ai/ha): 50; Plant response rating, Velvetleaf ([6]; Postemergence, 125 g ai/ha): 20; Plant response rating, Velvetleaf ([6]; Postemergence, 500 g ai/ha): 40; Plant response rating, Velvetleaf ([6]; Preemergence, 125 g ai/ha): 0; Plant response rating, Velvetleaf ([6]; Preemergence, 500 g ai/ha): 0; Plant response rating, Wheat ([7]; Postemergence, 125 g ai/ha): 0; Plant response rating, Wheat ([7]; Postemergence, 500 g ai/ha): 10; Plant response rating, Wheat ([7]; Preemergence, 125 g ai/ha): 0; Plant response rating, Wheat ([7]; Preemergence, 500 g ai/ha): 0; Plant response rating, Barnyardgrass ([8]; 125 g ai/ha): 0; Plant response rating, Ducksalad ([9]; 125 g ai/ha): 0; Plant response rating, Rice (rice (Oryza sativa); 125 g ai/ha): 0; Plant response rating, Sedge, Umbrella ([10]; 125 g ai/ha): 0
Cc1cc(=O)n(-c2ccc(F)cc2)nc1Cc1cccc(C(F)(F)F)c1 [Compound 8] | 20 | 50 | 20 | 40 | 0 | 0 | 40 | 90 | 90 | 100 | 50 | 90 | 80 | 90 | 80 | 80 | 0 | 0 | 90 | 100 | Plant response rating, Barnyardgrass ([1]; Preemergence, 125 g ai/ha): 20; Plant response rating, Barnyardgrass ([1]; Preemergence, 500 g ai/ha): 80; Plant response rating, Pigweed ([5]; Preemergence, 125 g ai/ha): 90; Plant response rating, Pigweed ([5]; Preemergence, 500 g ai/ha): 100; Plant response rating, Velvetleaf ([6]; Postemergence, 125 g ai/ha): 20; Plant response rating, Velvetleaf ([6]; Postemergence, 500 g ai/ha): 80; Plant response rating, Velvetleaf ([6]; Preemergence, 125 g ai/ha): 0; Plant response rating, Velvetleaf ([6]; Preemergence, 500 g ai/ha): 0; Plant response rating, Wheat ([7]; Postemergence, 125 g ai/ha): 10; Plant response rating, Wheat ([7]; Postemergence, 500 g ai/ha): 20; Plant response rating, Wheat ([7]; Preemergence, 125 g ai/ha): 0; Plant response rating, Wheat ([7]; Preemergence, 500 g ai/ha): 0; Plant response rating, Barnyardgrass ([8]; 250 g ai/ha): 20; Plant response rating, Ducksalad ([9]; 250 g ai/ha): 0; Plant response rating, Rice (rice (Oryza sativa); 250 g ai/ha): 25; Plant response rating, Sedge, Umbrella ([10]; 250 g ai/ha): 75
Cc1cc(Oc2cc(C(F)(F)F)ccn2)nn(-c2ccc(F)cc2)c1=O [Compound 9] | 0 | 0 | 0 | 0 | 0 | 0 | 0 | 0 | 0 | 0 | 0 | 0 | 0 | 0 | 0 | 0 | 0 | 0 | 0 | 0 | Plant response rating, Pigweed ([5]; Preemergence, 125 g ai/ha): 0; Plant response rating, Pigweed ([5]; Preemergence, 500 g ai/ha): 0; Plant response rating, Velvetleaf ([6]; Postemergence, 125 g ai/ha): 0; Plant response rating, Velvetleaf ([6]; Postemergence, 500 g ai/ha): 0; Plant response rating, Velvetleaf ([6]; Preemergence, 125 g ai/ha): 0; Plant response rating, Velvetleaf ([6]; Preemergence, 500 g ai/ha): 0; Plant response rating, Wheat ([7]; Postemergence, 125 g ai/ha): 0; Plant response rating, Wheat ([7]; Postemergence, 500 g ai/ha): 0; Plant response rating, Wheat ([7]; Preemergence, 125 g ai/ha): 0; Plant response rating, Wheat ([7]; Preemergence, 500 g ai/ha): 0; Plant response rating, Barnyardgrass ([8]; 250 g ai/ha): 0; Plant response rating, Ducksalad ([9]; 250 g ai/ha): 0; Plant response rating, Rice (rice (Oryza sativa); 250 g ai/ha): 0; Plant response rating, Sedge, Umbrella ([10]; 250 g ai/ha): 0
Cc1cc(=O)n(-c2ccc(F)cc2)nc1Oc1cc(C(F)(F)F)ccn1 [Compound 10] | 0 | 0 | 0 | 10 | 0 | 0 | 10 | 20 | 0 | 10 | 0 | 10 | 0 | 20 | 30 | 30 | 0 | 0 | 30 | 60 | Plant response rating, Pigweed ([5]; Preemergence, 125 g ai/ha): 0; Plant response rating, Pigweed ([5]; Preemergence, 500 g ai/ha): 30; Plant response rating, Velvetleaf ([6]; Postemergence, 125 g ai/ha): 0; Plant response rating, Velvetleaf ([6]; Postemergence, 500 g ai/ha): 10; Plant response rating, Velvetleaf ([6]; Preemergence, 125 g ai/ha): 0; Plant response rating, Velvetleaf ([6]; Preemergence, 500 g ai/ha): 0; Plant response rating, Wheat ([7]; Postemergence, 125 g ai/ha): 0; Plant response rating, Wheat ([7]; Postemergence, 500 g ai/ha): 0; Plant response rating, Wheat ([7]; Preemergence, 125 g ai/ha): 0; Plant response rating, Wheat ([7]; Preemergence, 500 g ai/ha): 0; Plant response rating, Barnyardgrass ([8]; 250 g ai/ha): 0; Plant response rating, Ducksalad ([9]; 250 g ai/ha): 0; Plant response rating, Rice (rice (Oryza sativa); 250 g ai/ha): 0; Plant response rating, Sedge, Umbrella ([10]; 250 g ai/ha): 0
